Drawing on patent US12319655B2, “RAF kinase inhibitors and methods of use thereof” (Deciphera Pharmaceuticals, LLC, priority 2021, dated 2025), this text covers IC50 for twelve molecules.

The test system of one experiment is Miapaca-2 cells. The experiment is described as follows: MiaPaca-2 Cell Proliferation Assay (1). The experiment is classed as cell-based. The conditions noted are these: Homo sapiens, MIA PaCa-2, single agent, read-out: MiaPaca2 (1) IC50. Summed up: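 Resazurin was added after compound exposure and incubated 5-6 h, then fluorescence read at 540 nm excitation and 600 nm emission to give IC50.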

The target of experiment [1] is C-Raf kinase (SEQ. ID NO: 3) (Homo sapiens (Human), UniProt P04049, Y340D/Y341D). Kind of experiment: Biochemical Assay for C-Raf (1). The following applies: Table J. Summed up:
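IC50 values come from a four-parameter fit of percent inhibition, using the reaction rate over 4–5 h of a 6 h continuous 340 nm read at 30 °C. The enzyme mix was C-Raf 0.43 nM, MEK substrate 30.1 nM and ATP 1 mM, in a PK/LDH NADH-coupled format in Tris pH 7.5 with 1% DMSO.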

The next experiment relates to A375 cells. The experiment is described as follows: A375 Cell Proliferation Assay (1). The conditions noted are these: Homo sapiens, A-375. The experiment is classed as cell-based. In outline:
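Resazurin fluorescence (excitation 540 nm, emission 600 nm, after a further 5-6 h) gave IC50s from triplicate compound dilution series.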

Another experiment deals with WM3928 cells. The experiment is described as follows: WM3928 Cell Proliferation Assay (1). The experiment is classed as cell-based. Summed up:
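IC50 was derived from resazurin fluorescence (ex 540, em 600 nm) after a 6–7 h dye incubation. Before that, cells had 67–72 h of compound exposure at 37 °C, 5% CO2.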

The mark [2] stands for this setting: biochemical assay (1), read-out: CRAF (1).
Where [3] appears, read: assay version (1), read-out: CRAF (1) IC50.

Where two headings read alike, the source gives them in different places.

Sequence of C-Raf kinase (SEQ. ID NO: 3) (P04049 307-648 Y340D/Y341D): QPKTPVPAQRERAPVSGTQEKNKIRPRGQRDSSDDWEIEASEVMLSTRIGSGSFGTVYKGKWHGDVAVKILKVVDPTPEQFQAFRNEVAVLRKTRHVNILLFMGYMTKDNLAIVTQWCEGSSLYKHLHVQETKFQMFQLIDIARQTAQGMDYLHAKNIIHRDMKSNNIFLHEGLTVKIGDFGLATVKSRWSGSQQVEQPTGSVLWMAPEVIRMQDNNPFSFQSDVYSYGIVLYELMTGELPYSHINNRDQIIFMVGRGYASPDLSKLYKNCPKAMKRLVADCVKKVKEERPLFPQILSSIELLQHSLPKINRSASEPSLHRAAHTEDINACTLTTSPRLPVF

Consider `CNC(=O)c1cc(-c2cncc(-c3cc(NC(=O)c4ccnc(C5(C#N)CC5)c4)ccc3C)c2)ncn1` [Example 393], for which the IC50 in the experiment with Miapaca-2 cells was 1000 to 10000 nM; in experiment [1] (setting [2]), ≤ 100 nM; in the experiment on A375 cells, 100 to 500 nM; with WM3928 cells, ≤ 100 nM.
As to `Cc1cc(-c2cc(NC(=O)c3ccnc(C(F)(F)F)c3)ccc2F)cc(-c2ccnc(NC(=O)C3CC3)c2)n1` [Example 72], the IC50 is 1000 to 10000 nM with Miapaca-2 cells, ≤ 100 nM in experiment [1] (setting [3]), 1000 to 10000 nM in the experiment with A375 cells and 100 to 500 nM with WM3928 cells.
Turning to `CCOc1ncc(-c2cc(NC(=O)c3ccnc(C(F)(F)F)c3)ccc2C)cc1-c1ccnc(C(=O)NC)c1` [Example 69], the IC50 is 1000 to 10000 nM with Miapaca-2 cells, 100 to 500 nM in experiment [1] (setting [3]), 100 to 500 nM in the experiment with A375 cells and ≤ 100 nM in the experiment with WM3928 cells.
Regarding `CNC(=O)c1cc(-c2cc(-c3cc(NC(=O)c4ccnc(C(F)(F)F)c4)cnc3C)ccn2)ccn1` [Example 42], the IC50 was 1000 to 10000 nM in the experiment with Miapaca-2 cells, ≤ 100 nM in experiment [1] (setting [3]), 1000 to 10000 nM in the experiment on A375 cells and 1000 to 10000 nM with WM3928 cells.
Turning to `Cc1ccc(NC(=O)c2ccnc(C(C)(C)C#N)c2)cc1-c1cccc(-c2cc(NC(=O)C3CC3)ncn2)c1` [Example 77], the IC50 was 1000 to 10000 nM in the experiment with Miapaca-2 cells, ≤ 100 nM in experiment [1] (setting [3]), ≤ 100 nM in the experiment with A375 cells and ≤ 100 nM with WM3928 cells.
Take `CC(=O)Nc1cc(-c2cc(-c3cc(NC(=O)c4ccnc(C(F)(F)F)c4)ccc3C)nc(N(C)C)n2)ccn1` [Example 41, N-(3-(6-(2-acetamidopyridin-4-yl)-2-(dimethylamino)pyrimidin-4-yl)-4-methylphenyl)-2-(trifluoromethyl)isonicotinamide]: the IC50 in the experiment with Miapaca-2 cells was 1000 to 10000 nM; in experiment [1] (setting [3]) it was ≤ 100 nM; in the experiment on A375 cells it was 100 to 500 nM; in the experiment on WM3928 cells it was ≤ 100 nM.
Take `Cc1ccc(NC(=O)c2ccnc(C(C)(C)C#N)c2)cc1-c1cncc(-c2ccnc3c2CC(=O)N3)n1` [Example 43]: the IC50 in the experiment on Miapaca-2 cells was 1000 to 10000 nM; in experiment [1] (setting [3]), ≤ 100 nM; with A375 cells, 500 to 1000 nM; in the experiment with WM3928 cells it was ≤ 100 nM.
In the case of `CNC(=O)c1cc(-c2cc(-c3cc(NC(=O)c4ccnc(C(F)F)c4)ccc3C)ccn2)ccn1` [Example 48], the IC50 is 1000 to 10000 nM with Miapaca-2 cells, ≤ 100 nM in experiment [1] (setting [3]), 500 to 1000 nM in the experiment with A375 cells and 500 to 1000 nM with WM3928 cells.
`CNC(=O)c1cc(-c2nccc(-c3cc(NC(=O)c4ccnc(C(C)(C)C#N)c4)ccc3C)n2)ccn1` [Example 78]: the IC50 in the experiment on Miapaca-2 cells was 1000 to 10000 nM; in experiment [1] (setting [3]), ≤ 100 nM; in the experiment with A375 cells, ≤ 100 nM; in the experiment on WM3928 cells it was ≤ 100 nM.
With `CCOc1ncc(-c2cc(NC(=O)c3ccnc(C(F)(F)F)c3)ccc2C)cc1-c1ccnc(NC(C)=O)c1` [Example 68], the IC50 is 1000 to 10000 nM with Miapaca-2 cells, ≤ 100 nM in experiment [1] (setting [3]), ≤ 100 nM with A375 cells and ≤ 100 nM in the experiment on WM3928 cells.
In the case of `CNC(=O)c1cc(-c2cc(-c3cc(NC(=O)c4cccc(C(F)(F)F)c4)cnc3C)ccn2)ccn1` [Example 52], the IC50 with Miapaca-2 cells is 1000 to 10000 nM; in experiment [1] (setting [3]), ≤ 100 nM; in the experiment on A375 cells, 100 to 500 nM; in the experiment with WM3928 cells it was 100 to 500 nM.
For `COC(=O)Nc1cc(-c2cncc(-c3cc(NC(=O)c4ccnc(C(C)(C)F)c4)c(F)cc3C)c2)ccn1` [Example 384], the IC50 with Miapaca-2 cells is 1000 to 10000 nM; in experiment [1] (setting [2]), ≤ 100 nM; in the experiment on A375 cells it was ≤ 100 nM; in the experiment with WM3928 cells, ≤ 100 nM.
